Tests used:
Assay in all cases: Kinase inhibitor library screening, PrestoBlue cell viability, 1 or 10 μM, 72 h
[1] = system: IGR37-GP cells (Dabrafenib-resistant)
Protocol: (§1) After 72 h of treatment, cell viability was assessed using the PrestoBlue Cell Viability Reagent (ThermoFisher Scientific). Measurements were performed with the CLARIOstar Monochromator microplate reader (BMG Labtech).
(§2) Kinase inhibitor library screening. […] Each cell line was treated in its sensitive form (parental), and also as 2 resistant derivatives, which were made resistant to either Vemurafenib (XP) or Dabrafenib (GP). Drugs were added at 2 different concentrations, 1 and 10 μM, for 72 h and cell viability was assessed using the PrestoBlue Cell Viability assay. Results are depicted as % viability compared to untreated cells. Each cell line was analyzed at least in duplicate. […] (XLSX 95 kb)

[2] = system: 501Mel-GP cells (Dabrafenib-resistant); conditions: 501Mel GP
Protocol: as §1, §2

[3] = system: IGR37 cells (parental)
Protocol: as §1, §2

[4] = system: A375-GP cells (Dabrafenib-resistant); conditions: for cell viability (kinase inhibitor library screening): A375 GP
Protocol: as §1, §2

[5] = system: 501Mel cells (parental)
Protocol: as §1, §2

[6] = system: 501Mel-XP cells (Vemurafenib-resistant)
Protocol: as §1, §2

[7] = system: A375-XP cells (Vemurafenib-resistant); conditions: for cell viability (kinase inhibitor library screening): in %
Protocol: as §1, §2

[8] = system: IGR37-XP cells (Vemurafenib-resistant)
Protocol: as §1, §2

[9] = system: A375 cells (parental)
Protocol: as §1, §2

## CCn1c(N)c(C(=O)NC)c(=O)c2ccc(C#C[C@@](C)(O)COC)nc21 [SAR131675]
[1]; IGR37 GP, 1μΜ, in %
  cell viability (kinase inhibitor library screening): 93.4
[1]; IGR37 GP, 10μΜ, in %
  cell viability (kinase inhibitor library screening): 96.6
[2]; 1μΜ, in %
  cell viability (kinase inhibitor library screening): 103.5
[2]; 10μΜ, in %
  cell viability (kinase inhibitor library screening): 90.9
[3]; IGR37 Parental, 1μΜ, in %
  cell viability (kinase inhibitor library screening): 100.2
[3]; IGR37 Parental, 10μΜ, in %
  cell viability (kinase inhibitor library screening): 99.7
[4]; 1μΜ, in %
  cell viability (kinase inhibitor library screening): 103.2
[4]; 10μΜ, in %
  cell viability (kinase inhibitor library screening): 87.6
[5]; 501Mel Parental, 1μΜ, in %
  cell viability (kinase inhibitor library screening): 96.4
[5]; 501Mel Parental, 10μΜ, in %
  cell viability (kinase inhibitor library screening): 92.6
[6]; 501Mel XP, 1μΜ, in %
  cell viability (kinase inhibitor library screening): 103.7
[6]; 501Mel XP, 10μΜ, in %
  cell viability (kinase inhibitor library screening): 85.3
[7]; A375 XP, 1μΜ
  cell viability (kinase inhibitor library screening): 108.8
[8]; IGR37 XP, 1μΜ, in %
  cell viability (kinase inhibitor library screening): 94.6
[8]; IGR37 XP, 10μΜ, in %
  cell viability (kinase inhibitor library screening): 71.4

## C[S+]([O-])c1ccc(-c2nc(-c3ccncc3)c(-c3ccc(F)cc3)[nH]2)cc1 (stereo not drawn) [SB 203580]
[1]
  Cell viability in kinase inhibitor library screening, IGR37 GP, 10μΜ: 86.6%
[1]; in %
  Cell viability in kinase inhibitor library screening, IGR37 GP, 1μΜ: 105.2
[3]; in %
  Cell viability in kinase inhibitor library screening, IGR37 Parental, 1μΜ: 116.2
  Cell viability in kinase inhibitor library screening, IGR37 Parental, 10μΜ: 92.9
[4]
  Cell viability in kinase inhibitor library screening, A375 GP, 1μΜ: 93.4
  Cell viability in kinase inhibitor library screening, A375 GP, 10μΜ: 98.4
[5]; in %
  Cell viability in kinase inhibitor library screening, 501Mel Parental, 1μΜ: 108.7
  Cell viability in kinase inhibitor library screening, 501Mel Parental, 10μΜ: 95.5
[6]; in %
  Cell viability in kinase inhibitor library screening, 501Mel XP, 10μΜ: 92.5
[7]
  Cell viability in kinase inhibitor library screening, A375 XP, 1μΜ: 111.6
  Cell viability in kinase inhibitor library screening, A375 XP, 10μΜ: 103.1
[8]
  Cell viability in kinase inhibitor library screening, IGR37 XP, 10μΜ: 62.9%
[8]; in %
  Cell viability in kinase inhibitor library screening, IGR37 XP, 1μΜ: 103.3
[9]
  Cell viability in kinase inhibitor library screening, A375 Parental, 1μΜ: 112.0
  Cell viability in kinase inhibitor library screening, A375 Parental, 10μΜ: 83.0

## Cn1cc(-c2ccc3nnc(Sc4ccc5ncccc5c4)n3n2)cn1 [SGX-523]
[1]; IGR37 GP, 1μΜ, 72 h
  cell viability (kinase inhibitor library screening): 94.1%
[1]; IGR37 GP, 10μΜ, 72 h
  cell viability (kinase inhibitor library screening): 90.7%
[2]; 1μΜ, 72 h
  cell viability (kinase inhibitor library screening): 82.6%
[2]; 10μΜ, 72 h
  cell viability (kinase inhibitor library screening): 64.3%
[3]; IGR37 Parental, 1μΜ, 72 h
  cell viability (kinase inhibitor library screening): 107.3%
[3]; IGR37 Parental, 10μΜ, 72 h
  cell viability (kinase inhibitor library screening): 94.5%
[4]; 1μΜ, 72 h
  cell viability (kinase inhibitor library screening): 89.5%
[4]; 10μΜ, 72 h
  cell viability (kinase inhibitor library screening): 94.8%
[5]; 501Mel Parental, 1μΜ, 72 h
  cell viability (kinase inhibitor library screening): 95.0%
[5]; 501Mel Parental, 10μΜ, 72 h
  cell viability (kinase inhibitor library screening): 89.4%
[6]; 501Mel XP, 1μΜ, 72 h
  cell viability (kinase inhibitor library screening): 67.2%
[6]; 501Mel XP, 10μΜ, 72 h
  cell viability (kinase inhibitor library screening): 58.8%
[8]; IGR37 XP, 1μΜ, 72 h
  cell viability (kinase inhibitor library screening): 100.4%
[8]; IGR37 XP, 10μΜ, 72 h
  cell viability (kinase inhibitor library screening): 74.3%
[9]; A375 Parental, 10μΜ, 72 h
  cell viability (kinase inhibitor library screening): 97.1%
[9]; A375 Parental, 1μΜ, 72 h
  cell viability (kinase inhibitor library screening): 104.5%

## COc1cc2nccc(Oc3ccc(NC(=O)Nc4cc(C)on4)c(Cl)c3)c2cc1OC [Tivozanib (AV-951)]
[2]; 1μΜ, in %
  cell viability (kinase inhibitor library screening): 103.1
[2]; 10μΜ, in %
  cell viability (kinase inhibitor library screening): 58.3
[3]; IGR37 Parental, 1μΜ, in %
  cell viability (kinase inhibitor library screening): 97.2
[3]; IGR37 Parental, 10μΜ, in %
  cell viability (kinase inhibitor library screening): 83.4
[4]; 1μΜ, in %
  cell viability (kinase inhibitor library screening): 99.1
[4]; 10μΜ, in %
  cell viability (kinase inhibitor library screening): 54.4
[5]; 501Mel Parental, 10μΜ, in %
  cell viability (kinase inhibitor library screening): 74.1
[6]; 501Mel XP, 1μΜ, in %
  cell viability (kinase inhibitor library screening): 97.3
[6]; 501Mel XP, 10μΜ, in %
  cell viability (kinase inhibitor library screening): 64.2
[7]; A375 XP, 1μΜ
  cell viability (kinase inhibitor library screening): 105.9
[7]; A375 XP, 10μΜ
  cell viability (kinase inhibitor library screening): 77.7
[8]; IGR37 XP, 10μΜ, in %
  cell viability (kinase inhibitor library screening): 55.2
[9]; A375 Parental, 1μΜ, in %
  cell viability (kinase inhibitor library screening): 104.6
[9]; A375 Parental, 10μΜ, in %
  cell viability (kinase inhibitor library screening): 60.4

## AZD4547
[1]; IGR37 GP, 1μΜ, 72 h
  cell viability, IGR37 GP, 1μΜ: 93.7
[1]; IGR37 GP, 10μΜ, 72 h
  cell viability, IGR37 GP, 10μΜ: 19.5
[2]; 10μΜ, 72 h
  cell viability, 501Mel GP, 10μΜ: 57.3
[3]; IGR37 Parental, 10μΜ, 72 h
  cell viability, IGR37 Parental, 10μΜ: 46.6
[5]; 501Mel Parental, 10μΜ, 72 h
  cell viability, 501Mel Parental, 10μΜ: 11.5
[6]; 501Mel XP, 1μΜ, 72 h
  cell viability, 501Mel XP, 1μΜ: 93.2
[6]; 501Mel XP, 10μΜ, 72 h
  cell viability, 501Mel XP, 10μΜ: 14.1
[7]; A375 XP, 1μΜ, 72 h
  cell viability, A375 XP, 1μΜ: 100.3
[7]; A375 XP, 10μΜ, 72 h
  cell viability, A375 XP, 10μΜ: 49.7
[8]; IGR37 XP, 1μΜ, 72 h
  cell viability, IGR37 XP, 1μΜ: 94.4
[8]; IGR37 XP, 10μΜ, 72 h
  cell viability, IGR37 XP, 10μΜ: 6.4
[9]; A375 Parental, 10μΜ, 72 h
  cell viability, A375 Parental, 10μΜ: 58.2

— PMC6364417, “Kinase inhibitor library screening identifies synergistic drug combinations effective in sensitive and resistant melanoma cells” (Journal of Experimental & Clinical Cancer Research : CR, 2019)
